{"source": "patent US10166237B2", "about": "“Compounds and methods for inducing chondrogenesis” (The Scripps Research Institute, priority 2011, dated 2019)"}
{"test_system": "human mesenchymal stem cells (hMSCs)", "test": "chondrogenic nodule formation by hMSCs (high throughput screen)", "format": "cell-based", "conditions": "not given", "protocol": "(§1) The primary screening assay was based upon the development of chondrogenic nodules. Chondrocytes can grow in monolayer in vitro, but to more closely mimic their native environment in the joint, the cells are routinely cultured in non-adherent conditions such as in pellet cultures or alginate bead suspensions.\n(§2) In the actual screen of a library of 22,000 structurally diverse heterocycles, 10^4 primary hMSCs were plated in 384 well plates in serum free DMEM. The cells were treated with 5 μM of each compound and incubated for 4 days. […] To facilitate high throughput imaged-based detection, the chondrogenic nodules were stained with […]. The Nile Red stained nodules were quantified on an Acumen eX3 (high content imaging device) by excitation with a 488 laser for rapid detection of the nodules.\n(§3) Primary hMSCs grown in a 96 well Greiner plates (50,000/well) were incubated for 4 days in the presence of the 5 uM of each DMSO or 100 nM of PRO1. On day 4, the cells were fixed with 4% formalin for 10 minutes, washed and stained with 1 μg/ml of Rhodamine B for 2 hours at room temperature."}
{"smiles": "N#Cc1ccc(NC(=O)c2ccccc2C#N)cc1", "note": "[Compound A01]", "Activity (chondrogenic nodules formed in % of cells)": "** (chondrogenic nodules formed in at least 25% but less than 50% of cells)"}
{"smiles": "N#Cc1ccc(NC(=O)c2ccccc2CC(=O)O)cc1", "note": "[Compound A06]", "Activity (chondrogenic nodules formed in % of cells)": "*** (chondrogenic nodules formed in at least 50% but less than 75% of cells)"}
{"smiles": "CC(=O)c1ccccc1C(=O)Nc1ccc(C#N)cc1", "note": "[Compound A09]", "Activity (chondrogenic nodules formed in % of cells)": "** (chondrogenic nodules formed in at least 25% but less than 50% of cells)"}
{"smiles": "COC(=O)Nc1ccccc1C(=O)Nc1ccc(C#N)cc1", "note": "[Compound A11]", "Activity (chondrogenic nodules formed in % of cells)": "** (chondrogenic nodules formed in at least 25% but less than 50% of cells)"}
{"smiles": "N#Cc1ccc(NC(=O)c2ccccc2NC(N)=O)cc1", "note": "[Compound A12]", "Activity (chondrogenic nodules formed in % of cells)": "** (chondrogenic nodules formed in at least 25% but less than 50% of cells)"}
{"smiles": "CS(=O)(=O)Nc1ccccc1C(=O)Nc1ccc(C#N)cc1", "note": "[Compound A13]", "Activity (chondrogenic nodules formed in % of cells)": "** (chondrogenic nodules formed in at least 25% but less than 50% of cells)"}
{"smiles": "N#Cc1ccc(NC(=O)c2ccccc2S(=O)(=O)O)cc1", "note": "[Compound A22]", "Activity (chondrogenic nodules formed in % of cells)": "** (chondrogenic nodules formed in at least 25% but less than 50% of cells)"}
{"smiles": "N#Cc1ccc(NC(=O)c2ccccc2S(N)(=O)=O)cc1", "note": "[Compound A23]", "Activity (chondrogenic nodules formed in % of cells)": "** (chondrogenic nodules formed in at least 25% but less than 50% of cells)"}
{"smiles": "CNS(=O)(=O)c1ccccc1C(=O)Nc1ccc(C#N)cc1", "note": "[Compound A24]", "Activity (chondrogenic nodules formed in % of cells)": "** (chondrogenic nodules formed in at least 25% but less than 50% of cells)"}
{"smiles": "N#Cc1ccc(NC(=O)c2ccc(C#N)cc2C(=O)O)cc1", "note": "[Compound B02]", "Activity (chondrogenic nodules formed in % of cells)": "** (chondrogenic nodules formed in at least 25% but less than 50% of cells)"}
{"smiles": "N#Cc1ccc(NC(=O)c2cc(C#N)ccc2C(=O)O)cc1", "note": "[Compound B03, sodium 4-cyano-2-[(4-cyanophenyl)carbamoyl]benzoate]", "Activity (chondrogenic nodules formed in % of cells)": "*** (chondrogenic nodules formed in at least 50% but less than 75% of cells)"}
{"smiles": "N#Cc1ccc(NC(=O)c2ccc(C(=O)O)cc2C(=O)O)cc1", "note": "[Compound B10]", "Activity (chondrogenic nodules formed in % of cells)": "** (chondrogenic nodules formed in at least 25% but less than 50% of cells)"}
{"smiles": "N#Cc1ccc(NC(=O)c2c(C(=O)O)cccc2C(=O)O)cc1", "note": "[Compound B12]", "Activity (chondrogenic nodules formed in % of cells)": "** (chondrogenic nodules formed in at least 25% but less than 50% of cells)"}
{"smiles": "N#Cc1ccc(NC(=O)c2ccncc2C(=O)O)cc1", "note": "[Compound B19]", "Activity (chondrogenic nodules formed in % of cells)": "*** (chondrogenic nodules formed in at least 50% but less than 75% of cells)"}
{"smiles": "N#Cc1ccc(NC(=O)c2cccnc2C(=O)O)cc1", "note": "[Compound B20]", "Activity (chondrogenic nodules formed in % of cells)": "** (chondrogenic nodules formed in at least 25% but less than 50% of cells)"}
{"smiles": "N#Cc1ccc(NC(=O)c2ccccc2-c2ccccc2C(=O)O)cc1", "note": "[Compound B32]", "Activity (chondrogenic nodules formed in % of cells)": "** (chondrogenic nodules formed in at least 25% but less than 50% of cells)"}
{"smiles": "O=C(O)c1ccccc1C(=O)Nc1ccncc1", "note": "[Compound N01]", "Activity (chondrogenic nodules formed in % of cells)": "*** (chondrogenic nodules formed in at least 50% but less than 75% of cells)"}
{"smiles": "O=C(O)c1ccccc1C(=O)Nc1ccccc1OC(F)F", "note": "[Compound N04]", "Activity (chondrogenic nodules formed in % of cells)": "*** (chondrogenic nodules formed in at least 50% but less than 75% of cells)"}
{"smiles": "O=C(O)c1ccccc1C(=O)Nc1cccc(OC(F)F)c1", "note": "[Compound N05]", "Activity (chondrogenic nodules formed in % of cells)": "** (chondrogenic nodules formed in at least 25% but less than 50% of cells)"}
{"smiles": "CC(=O)c1cccc(NC(=O)c2ccccc2C(=O)O)c1", "note": "[Compound N08]", "Activity (chondrogenic nodules formed in % of cells)": "**** (chondrogenic nodules formed in at least 75% of cells)"}
{"smiles": "CC(=O)c1ccc(NC(=O)c2ccccc2C(=O)O)cc1", "note": "[Compound N09]", "Activity (chondrogenic nodules formed in % of cells)": "** (chondrogenic nodules formed in at least 25% but less than 50% of cells)"}
{"smiles": "NC(=O)c1ccccc1NC(=O)c1ccccc1C(=O)O", "note": "[Compound N10]", "Activity (chondrogenic nodules formed in % of cells)": "** (chondrogenic nodules formed in at least 25% but less than 50% of cells)"}
{"smiles": "NC(=O)c1cccc(NC(=O)c2ccccc2C(=O)O)c1", "note": "[Compound N11]", "Activity (chondrogenic nodules formed in % of cells)": "** (chondrogenic nodules formed in at least 25% but less than 50% of cells)"}
{"smiles": "O=C(O)c1ccccc1NC(=O)c1ccccc1C(=O)O", "note": "[Compound N13]", "Activity (chondrogenic nodules formed in % of cells)": "** (chondrogenic nodules formed in at least 25% but less than 50% of cells)"}
{"smiles": "O=C(O)c1cccc(NC(=O)c2ccccc2C(=O)O)c1", "note": "[Compound N14]", "Activity (chondrogenic nodules formed in % of cells)": "** (chondrogenic nodules formed in at least 25% but less than 50% of cells)"}
{"smiles": "NS(=O)(=O)c1cccc(NC(=O)c2ccccc2C(=O)O)c1", "note": "[Compound N17]", "Activity (chondrogenic nodules formed in % of cells)": "** (chondrogenic nodules formed in at least 25% but less than 50% of cells)"}
{"smiles": "N#Cc1cccc(NC(=O)c2ccccc2C(=O)O)c1", "note": "[Compound N19]", "Activity (chondrogenic nodules formed in % of cells)": "*** (chondrogenic nodules formed in at least 50% but less than 75% of cells)"}
{"smiles": "O=C(O)c1ccccc1C(=O)Nc1ccccc1CO", "note": "[Compound N20]", "Activity (chondrogenic nodules formed in % of cells)": "** (chondrogenic nodules formed in at least 25% but less than 50% of cells)"}
{"smiles": "CNCc1cccc(NC(=O)c2ccccc2C(=O)O)c1", "note": "[Compound N24]", "Activity (chondrogenic nodules formed in % of cells)": "*** (chondrogenic nodules formed in at least 50% but less than 75% of cells)"}
{"smiles": "O=C(O)c1ccccc1C(=O)Nc1ccc(CCO)cc1", "note": "[Compound N26]", "Activity (chondrogenic nodules formed in % of cells)": "*** (chondrogenic nodules formed in at least 50% but less than 75% of cells)"}
{"smiles": "O=C(O)c1ccccc1C(=O)Nc1ccc(N2CCOCC2)cc1", "note": "[Compound N28]", "Activity (chondrogenic nodules formed in % of cells)": "** (chondrogenic nodules formed in at least 25% but less than 50% of cells)"}
{"smiles": "N#CC1CCC(NC(=O)c2ccccc2C(=O)O)CC1", "note": "(centres unmarked) [Compound N30]", "Activity (chondrogenic nodules formed in % of cells)": "** (chondrogenic nodules formed in at least 25% but less than 50% of cells)"}
{"smiles": "O=C(O)c1ccccc1C(=O)NC1CCC(C(=O)O)CC1", "note": "(centres unmarked) [Compound N31]", "Activity (chondrogenic nodules formed in % of cells)": "** (chondrogenic nodules formed in at least 25% but less than 50% of cells)"}
{"smiles": "O=C(O)c1ccccc1C(=O)NCC1CCC(C(=O)O)CC1", "note": "(centres unmarked) [Compound N33]", "Activity (chondrogenic nodules formed in % of cells)": "** (chondrogenic nodules formed in at least 25% but less than 50% of cells)"}
{"smiles": "O=C(O)c1ccccc1C(=O)Nc1ncc[nH]1", "note": "[Compound N34]", "Activity (chondrogenic nodules formed in % of cells)": "** (chondrogenic nodules formed in at least 25% but less than 50% of cells)"}
{"smiles": "O=C(O)c1ccccc1C(=O)Nc1ncco1", "note": "[Compound N35]", "Activity (chondrogenic nodules formed in % of cells)": "** (chondrogenic nodules formed in at least 25% but less than 50% of cells)"}
{"smiles": "O=C(O)c1ccccc1C(=O)Nc1nc(-c2ccccc2)co1", "note": "[Compound N38]", "Activity (chondrogenic nodules formed in % of cells)": "** (chondrogenic nodules formed in at least 25% but less than 50% of cells)"}
{"smiles": "O=C(O)c1ccccc1C(=O)Nc1nc(-c2ccccc2)cs1", "note": "[Compound N39]", "Activity (chondrogenic nodules formed in % of cells)": "** (chondrogenic nodules formed in at least 25% but less than 50% of cells)"}
{"smiles": "O=C(O)c1ccccc1C(=O)Nc1cncs1", "note": "[Compound N42]", "Activity (chondrogenic nodules formed in % of cells)": "*** (chondrogenic nodules formed in at least 50% but less than 75% of cells)"}
{"smiles": "O=C(O)c1ccccc1C(=O)Nc1cnc(-c2ccccc2)s1", "note": "[Compound N45]", "Activity (chondrogenic nodules formed in % of cells)": "*** (chondrogenic nodules formed in at least 50% but less than 75% of cells)"}
{"smiles": "O=C(O)c1ccccc1C(=O)Nc1ncccn1", "note": "[Compound N50]", "Activity (chondrogenic nodules formed in % of cells)": "** (chondrogenic nodules formed in at least 25% but less than 50% of cells)"}
{"smiles": "O=C(O)c1ccccc1C(=O)Nc1cnccn1", "note": "[Compound N52]", "Activity (chondrogenic nodules formed in % of cells)": "** (chondrogenic nodules formed in at least 25% but less than 50% of cells)"}
{"smiles": "N#Cc1cccc2[nH]c(-c3ccccc3C(=O)O)nc12", "note": "[Compound R01]", "Activity (chondrogenic nodules formed in % of cells)": "** (chondrogenic nodules formed in at least 25% but less than 50% of cells)"}
{"smiles": "N#Cc1ccc2nc(-c3ccccc3C(=O)O)sc2c1", "note": "[Compound R06-1]", "Activity (chondrogenic nodules formed in % of cells)": "** (chondrogenic nodules formed in at least 25% but less than 50% of cells)"}
{"smiles": "N#Cc1ccc(S(=O)(=O)Nc2ccccc2C(=O)O)cc1", "note": "[Compound R07]", "Activity (chondrogenic nodules formed in % of cells)": "** (chondrogenic nodules formed in at least 25% but less than 50% of cells)"}
{"smiles": "N#Cc1ccc(NC(=O)Nc2ccccc2C(=O)O)cc1", "note": "[Compound R10]", "Activity (chondrogenic nodules formed in % of cells)": "** (chondrogenic nodules formed in at least 25% but less than 50% of cells)"}
{"smiles": "O=C(O)c1ccccc1CNC(=O)c1ccccc1C(=O)O", "note": "[MS01]", "Activity (chondrogenic nodules formed in % of cells)": "*** (chondrogenic nodules formed in at least 50% but less than 75% of cells)"}
{"smiles": "O=C(O)c1cccc(CNC(=O)c2ccccc2C(=O)O)c1", "note": "[MS02]", "Activity (chondrogenic nodules formed in % of cells)": "** (chondrogenic nodules formed in at least 25% but less than 50% of cells)"}
{"smiles": "N#Cc1ccccc1CNC(=O)c1ccccc1C(=O)O", "note": "[MS04]", "Activity (chondrogenic nodules formed in % of cells)": "** (chondrogenic nodules formed in at least 25% but less than 50% of cells)"}
{"smiles": "N#Cc1ccc(CNC(=O)c2ccccc2C(=O)O)cc1", "note": "[MS06]", "Activity (chondrogenic nodules formed in % of cells)": "** (chondrogenic nodules formed in at least 25% but less than 50% of cells)"}
{"smiles": "N#Cc1ccc(C(=O)NCc2ccccc2C(=O)O)cc1", "note": "[MS11]", "Activity (chondrogenic nodules formed in % of cells)": "** (chondrogenic nodules formed in at least 25% but less than 50% of cells)"}
{"test_system": "human mesenchymal stem cells (hMSCs)", "test": "chondrogenic nodule formation by hMSCs (high throughput screen)", "format": "cell-based", "conditions": "Homo sapiens, Mesenchymal stem cells; first value of the cell (before the slash); read-out: CHONDROGENIC μM EC50", "protocol": "as §1, §2, §3", "units": {"EC50": "µM"}}
{"smiles": "N#Cc1ccccc1NC(=O)c1ccccc1C(=O)O", "note": "[LK13b]", "EC50": "> 10"}
{"smiles": "O=C(O)c1ccccc1C(=O)Nc1nnc(-c2ccccc2)s1", "note": "[LK57, 2-((5-phenyl-1,3,4-thiadiazol-2-yl)carbamoyl)benzoic acid]", "EC50": "> 10"}
